According to article PMC10998594, “Structural and mechanistic basis of the central energy-converting methyltransferase complex of methanogenesis” (Proceedings of the National Academy of Sciences of the …, 2024):

Biological target: T1, MtrABCDEFG; Mtr(ABCDEFG)3; N5-methyl-tetrahydromethanopterin: coenzyme M methyltransferase core complex (Methanothermobacter marburgensis, UniProt P80183+P80185+P80186)
T1 construct: gene mtrE; native purification from M. marburgensis membranes (DDM/LMNG); trimer of MtrABCDEFG protomers, 430 kDa; MtrH not visible; soluble MtrA domain disordered, only MtrA 178-238 seen; printed lengths MtrB 100, MtrC 267, MtrD 233, MtrE 295, MtrF 68, MtrG 86; with Tetrahydromethanopterin S-methyltransferase subunit A; Tetrahydromethanopterin S-methyltransferase subunit B; Tetrahydromethanopterin S-methyltransferase subunit F; Tetrahydromethanopterin S-methyltransferase subunit G
T1 sequence (P80183 whole entry, looked up, the tested form may be a part): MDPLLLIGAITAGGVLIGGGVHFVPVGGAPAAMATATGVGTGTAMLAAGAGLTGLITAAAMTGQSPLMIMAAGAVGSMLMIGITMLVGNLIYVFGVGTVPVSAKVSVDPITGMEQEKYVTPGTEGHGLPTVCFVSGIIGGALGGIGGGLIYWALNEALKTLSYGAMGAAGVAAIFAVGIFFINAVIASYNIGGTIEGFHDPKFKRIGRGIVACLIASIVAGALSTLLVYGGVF
T1 sequence (P80185 whole entry, looked up, the tested form may be a part): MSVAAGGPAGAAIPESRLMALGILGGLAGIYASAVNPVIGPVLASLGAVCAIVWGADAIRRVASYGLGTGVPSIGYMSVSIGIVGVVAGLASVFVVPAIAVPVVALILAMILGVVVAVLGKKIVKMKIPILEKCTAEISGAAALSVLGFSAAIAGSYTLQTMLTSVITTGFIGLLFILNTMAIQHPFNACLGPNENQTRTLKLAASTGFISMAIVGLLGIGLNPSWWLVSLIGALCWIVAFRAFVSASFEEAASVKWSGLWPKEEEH
T1 sequence (P80186 whole entry, looked up, the tested form may be a part): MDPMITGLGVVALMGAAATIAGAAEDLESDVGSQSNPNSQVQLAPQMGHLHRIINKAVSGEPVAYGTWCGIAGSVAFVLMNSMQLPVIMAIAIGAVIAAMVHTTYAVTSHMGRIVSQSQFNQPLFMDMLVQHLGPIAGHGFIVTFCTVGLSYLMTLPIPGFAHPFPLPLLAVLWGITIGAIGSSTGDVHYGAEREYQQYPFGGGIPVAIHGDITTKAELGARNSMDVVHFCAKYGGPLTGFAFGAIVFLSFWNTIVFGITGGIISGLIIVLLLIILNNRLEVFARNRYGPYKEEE
Test: cryo-EM structure, […] A
Type: binding
Settings: 2 mM CoM, pH 7, 80 mM NaCl; site at wall of MtrCDE cavity (MtrE R113, N38; MtrC N188); two partially occupied conformations; putative assignment

For O=S(=O)(O)CCS [CoM], which “cryo-EM structure, 2.39 A” value is on record?
Its value is “revealed the CoM binding site at the wall of the MtrCDE cavity”.
